From patent US20240269086A1, “PERGULARIA TOMENTOSA SILVER NANOPARTICLES” (KING FAISAL UNIVERSITY, priority 2023, published 2024)

Columns and labels:
Test in all cases: Agar disk diffusion, inhibition zone diameter
Assay type in all cases: cell-based
[1] = test system: B. cereus; details: 25 μg/ml, Nil = No growth
Text: (§1) The agar disk diffusion method was used to investigate the antibacterial activity of the PT-AgNPs against four bacterial strains.

[2] = test system: S. aureus; details: 25 μg/ml, Nil = No growth
Text: as §1

[3] = test system: S. enteritidis; details: 6.25 μg/ml (by grid column), Nil = No growth
Text: as §1

[4] = test system: E. coli; details: 25 μg/ml, Nil = No growth
Text: as §1

Measured: IZD (mm)

O=C(N[C@H](CO)[C@H](O)c1ccc([N+](=O)[O-])cc1)C(Cl)Cl [Chloramphenicol]
Nil: all assays above
